Test results: US8889875B2, “Pyridyl derivatives as CFTR modulators” (Vertex Pharmaceuticals Incorporated, priority 2008, dated 2014)

Biological target: T1, ΔF508-CFTR (Homo sapiens, UniProt P13569, DEL508-508)
T1 construct: expressed in transfected cells
Test: Membrane potential optical assay, identification of correction compounds (single-addition HTS format)
Format: cell-based
Settings: PercentActivity; ΔF508-CFTR in NIH3T3 mouse fibroblasts; 16-24 hrs with compound; 10 μM forskolin and 20 μM genistein; read-out: BinnedMaxEfficacy
Source text: Membrane Potential Optical Methods for Assaying ΔF508-CFTR Modulation Properties of Compounds.
The assay utilizes fluorescent voltage sensing dyes to measure changes in membrane potential using a fluorescent plate reader (e.g., FLIPR III, Molecular Devices, Inc.) as a readout for increase in functional ΔF508-CFTR in NIH 3T3 cells. The driving force for the response is the creation of a chloride ion gradient in conjunction with channel activation by a single liquid addition step after the cells have previously been treated with compounds and subsequently loaded with a voltage sensing dye.
To identify small molecules that correct the trafficking defect associated with ΔF508-CFTR; a single-addition HTS assay format was developed. Assay Plates containing cells are incubated for ˜2-4 hours in tissue culture incubator at 37° C., 5% CO2, 90% humidity. Cells are then ready for compound exposure after adhering to the bottom of the assay plates.
The cells were incubated in serum-free medium for 16-24 hrs in tissue culture incubator at 37° C., 5% CO2, 90% humidity in the presence or absence (negative control) of test compound. The cells were subsequently rinsed 3× with Krebs Ringers solution and loaded with a voltage sensing redistribution dye. To activate ΔF508-CFTR, 10 μM forskolin and the CFTR potentiator, genistein (20 μM), were added along with Cl^−-free medium to each well. The addition of Cl^−-free medium promoted Cl^− efflux in response to ΔF508-CFTR activation and the resulting membrane depolarization was optically monitored using voltage sensor dyes.
Bath Solution #1: (in mM) NaCl 160, KCl 4.5, CaCl2 2, MgCl2 1, HEPES 10, pH 7.4 with NaOH.
Chloride-free bath solution: Chloride salts in Bath Solution #1 are substituted with gluconate salts.
NIH3T3 mouse fibroblasts stably expressing ΔF508-CFTR are used for optical measurements of membrane potential. The cells are maintained at 37° C. in 5% CO2 and 90% humidity in Dulbecco's modified Eagle's medium supplemented with 2 mM glutamine, 10% fetal bovine serum, 1×NEAA, β-ME, 1×pen/strep, and 25 mM HEPES in 175 cm^2 culture flasks. For all optical assays, the cells were seeded at ˜20,000/well in 384-well matrigel-coated plates and cultured for 2 hrs at 37° C. before culturing at 27° C. for 24 hrs. for the potentiator assay. For the correction assays, the cells are cultured at 27° C. or 37° C. with and without compounds for 16-24 hours.

T1 sequence (P13569 with tags, fused parts or gaps DEL508-508): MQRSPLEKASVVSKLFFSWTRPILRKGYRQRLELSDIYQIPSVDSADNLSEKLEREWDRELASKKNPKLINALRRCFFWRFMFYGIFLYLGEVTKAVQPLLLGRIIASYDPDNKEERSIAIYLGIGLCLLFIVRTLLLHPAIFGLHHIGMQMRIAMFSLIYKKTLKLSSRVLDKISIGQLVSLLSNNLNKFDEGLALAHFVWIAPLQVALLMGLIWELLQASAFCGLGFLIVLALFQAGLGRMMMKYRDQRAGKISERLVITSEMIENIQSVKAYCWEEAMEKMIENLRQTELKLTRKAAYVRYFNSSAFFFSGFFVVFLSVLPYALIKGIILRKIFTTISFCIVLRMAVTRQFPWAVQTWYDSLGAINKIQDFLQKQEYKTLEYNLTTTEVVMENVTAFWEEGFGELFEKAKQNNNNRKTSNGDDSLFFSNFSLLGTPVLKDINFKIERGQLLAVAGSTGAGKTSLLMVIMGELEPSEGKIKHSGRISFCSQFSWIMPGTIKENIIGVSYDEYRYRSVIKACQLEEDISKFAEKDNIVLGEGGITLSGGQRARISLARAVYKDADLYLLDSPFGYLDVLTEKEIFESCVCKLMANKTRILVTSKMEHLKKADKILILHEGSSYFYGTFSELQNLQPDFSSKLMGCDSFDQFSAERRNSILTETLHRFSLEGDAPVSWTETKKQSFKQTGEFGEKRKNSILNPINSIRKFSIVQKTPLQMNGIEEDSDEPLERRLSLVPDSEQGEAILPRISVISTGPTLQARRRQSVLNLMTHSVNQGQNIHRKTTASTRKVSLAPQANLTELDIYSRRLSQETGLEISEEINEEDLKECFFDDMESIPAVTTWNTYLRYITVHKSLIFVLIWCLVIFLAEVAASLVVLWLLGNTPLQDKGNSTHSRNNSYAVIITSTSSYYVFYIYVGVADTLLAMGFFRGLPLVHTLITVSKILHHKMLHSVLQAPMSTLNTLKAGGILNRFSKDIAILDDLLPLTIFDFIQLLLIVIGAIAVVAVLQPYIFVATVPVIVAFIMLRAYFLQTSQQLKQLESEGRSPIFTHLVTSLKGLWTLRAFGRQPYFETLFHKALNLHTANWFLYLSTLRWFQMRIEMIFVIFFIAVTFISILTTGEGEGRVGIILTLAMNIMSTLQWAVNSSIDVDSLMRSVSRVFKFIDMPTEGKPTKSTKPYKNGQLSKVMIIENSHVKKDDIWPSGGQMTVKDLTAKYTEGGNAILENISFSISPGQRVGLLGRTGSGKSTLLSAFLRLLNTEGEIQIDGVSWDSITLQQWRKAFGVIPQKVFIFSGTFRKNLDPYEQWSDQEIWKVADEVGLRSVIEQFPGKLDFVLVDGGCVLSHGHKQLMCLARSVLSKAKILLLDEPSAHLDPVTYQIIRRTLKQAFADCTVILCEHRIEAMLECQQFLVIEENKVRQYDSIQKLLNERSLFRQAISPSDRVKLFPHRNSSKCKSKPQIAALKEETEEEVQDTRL

Compound | Emax
COc1ccc(C2(C(=O)Nc3ccccn3)CC2)cc1 [Compound 25] | 25 to 100%
COc1ccccc1C(c1ccc(NC(=O)C2(c3ccc4c(c3)OCO4)CC2)nc1)N(C)C (stereo not shown) [Compound 20] | > 100%
COc1ccccc1C(O)c1ccc(NC(=O)C2(c3ccc4c(c3)OCO4)CC2)nc1 (stereo not shown) [Compound 44] | > 100%
COc1ccccc1Nc1cccc(NC(=O)C2(c3ccc4c(c3)OCO4)CC2)n1 [Compound 64] | 25 to 100%
O=C(Nc1ncccc1OCc1ccccc1)C1(c2ccccc2)CC1 [Compound 41] | 25 to 100%
COc1ccc(C2(C(=O)Nc3cccc(C)n3)CC2)cc1 [Compound 54] | 25 to 100%
COc1ccccc1Cc1ccc(NC(=O)C2(c3ccc(C)cc3)CC2)nc1 [Compound 31] | 25 to 100%
COc1ccccc1C(c1ccc(NC(=O)C2(c3ccc4c(c3)OCO4)CC2)nc1)N1CC[C@@H](O)C1 (stereo partly shown) [Compound 55] | > 100%
COc1ccccc1C(c1ccc(NC(=O)C2(c3ccc4c(c3)OCO4)CC2)nc1)N1CCCCC1 (stereo not shown) [Compound 32] | > 100%
COc1ccccc1C(=O)c1ccc(NC(=O)C2(c3ccc4c(c3)OCO4)CC2)nc1 [Compound 27] | > 100%
COc1ccccc1C(OCCN(C(C)C)C(C)C)c1ccc(NC(=O)C2(c3ccc4c(c3)OCO4)CC2)nc1 (stereo not shown) [Compound 18] | 25 to 100%
COc1ccccc1C(c1ccc(NC(=O)C2(c3ccc4c(c3)OCO4)CC2)nc1)N1CCC(O)CC1 (stereo not shown) [Compound 58] | > 100%
COc1ccccc1Cc1ccc(NC(=O)C2(c3ccc(OC(F)(F)F)cc3)CC2)nc1 [Compound 4] | > 100%
COc1ccccc1Nc1ccc(NC(=O)C2(c3ccc4c(c3)OCO4)CC2)nc1 [Compound 52] | > 100%
COc1ccc(C2(C(=O)Nc3ccc(C)cn3)CC2)cc1 [Compound 38] | 25 to 100%
COc1ccccc1C(=O)c1ccc(NC(=O)C2(c3ccccc3)CC2)nc1 [Compound 77] | 25 to 100%
